Data: patent US10683272B2 (THE JOHNS HOPKINS UNIVERSITY, priority 2014, dated 2020)
Where a SMILES comes first, the peptide text is derived from it. [ ]: non-standard residue; d: D form. The star is where a group is joined. ξ: configuration not given here. X1 = O=C(O)CC[C@H](NC(=O)N[C@@H](CCCCNC(=O)CCCCCCC(=O)*)C(=O)O)C(=O)O; DOTA = O=C(O)CN1CCN(CC(=O)O)CCN(CC(=O)*)CCN(CC(=O)O)CC1; ξF = NC(Cc1ccccc1)C(=O)O

Biological target: PSMA (Homo sapiens, UniProt Q04609)
Assay: PSMA inhibitory activities, fluorescence-based assay (Example 3)
Format: biochemical
Protocol: PSMA inhibitory activities were determined using a fluorescence-based assay (Banerjee, Pullambhatla, Byun, et al., 2011). Enzyme inhibitory constants (Ki values) were generated using the Cheng-Prusoff conversion (Cheng and Prusoff, 1973). Sub-lines of the androgen independent PC-3 human prostate cancer xenograft were used (Banerjee, Pullambhatla, Byun, et al., 2011). Those sub-lines have been modified to express high (PC-3 PIP) or naturally produce low (PC-3 flu) levels of PSMA (Dr. Warren Heston, Cleveland Clinic, Cleveland, Ohio).

Chain of PSMA (Q04609 whole entry): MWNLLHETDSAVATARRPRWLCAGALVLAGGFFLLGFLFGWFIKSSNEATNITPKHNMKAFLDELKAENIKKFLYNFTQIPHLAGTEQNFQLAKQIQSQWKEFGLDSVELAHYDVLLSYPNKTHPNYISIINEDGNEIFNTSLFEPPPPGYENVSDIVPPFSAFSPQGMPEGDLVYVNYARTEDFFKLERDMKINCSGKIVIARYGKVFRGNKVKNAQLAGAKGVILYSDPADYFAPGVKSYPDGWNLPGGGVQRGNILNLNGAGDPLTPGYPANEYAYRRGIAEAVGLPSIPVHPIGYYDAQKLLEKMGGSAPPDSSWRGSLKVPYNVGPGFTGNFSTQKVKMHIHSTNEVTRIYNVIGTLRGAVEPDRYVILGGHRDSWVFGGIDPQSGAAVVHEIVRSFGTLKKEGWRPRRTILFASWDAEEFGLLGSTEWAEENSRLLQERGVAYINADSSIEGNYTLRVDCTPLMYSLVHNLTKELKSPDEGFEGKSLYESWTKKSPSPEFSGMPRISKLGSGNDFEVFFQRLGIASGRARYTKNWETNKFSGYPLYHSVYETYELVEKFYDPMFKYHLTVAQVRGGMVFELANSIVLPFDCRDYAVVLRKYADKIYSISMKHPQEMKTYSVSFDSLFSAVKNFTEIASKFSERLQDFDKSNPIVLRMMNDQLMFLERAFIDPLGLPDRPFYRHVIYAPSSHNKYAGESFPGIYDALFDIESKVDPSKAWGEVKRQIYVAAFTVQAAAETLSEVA

SMILES	Ki [nM]
O=C(O)CC[C@H](NC(=O)N[C@@H](CCCCNC(=O)CCCCCCC(=O)NCCCC[C@H](NC(=O)C(Cc1ccccc1)NC(=O)C(Cc1ccccc1)NC(=O)C(Cc1ccccc1)NC(=O)CN1CCN(CC(=O)O)CCN(CC(=O)O)CCN(CC(=O)O)CC1)C(=O)O)C(=O)O)C(=O)O (stereo partly shown) [Compound 5]	3.12
O=C(O)CC[C@H](NC(=O)N[C@@H](CCCCNC(=O)CCCCCCC(=O)NCCCCNC(=S)Nc1ccc(CC2CN(CC(=O)O)CCN(CC(=O)O)CCN(CC(=O)O)CCN2CC(=O)O)cc1)C(=O)O)C(=O)O (stereo partly drawn) [Compound 6, (21S,25S)-8,15,23-trioxo-1-((4-((1,4,7,10-tetrakis(carboxymethyl)-1,4,7,10-tetraazacyclododecan-2-yl)methyl)phenyl)amino)-1-thioxo-2,7,16,22,24-pentaazaheptacosane-21,25,27-tricarboxylic acid]	1.8
O=C([O-])CN1CCN(CC(=O)[O-])CCN(CC(=O)NC(Cc2ccccc2)C(=O)NC(Cc2ccccc2)C(=O)N[C@@H](CCCCNC(=O)CCCCCCC(=O)NCCCC[C@H](NC(=O)N[C@@H](CCC(=O)O)C(=O)O)C(=O)O)C(=O)O)CCN(CC(=O)[O-])CC1.[Y+3] (stereo partly shown) [^89Y-4]	0.36
O=C([O-])CN1CCN(CC(=O)[O-])CCN(CC(=O)NC(Cc2ccccc2)C(=O)NC(Cc2ccccc2)C(=O)NC(Cc2ccccc2)C(=O)N[C@@H](CCCCNC(=O)CCCCCCC(=O)NCCCC[C@H](NC(=O)N[C@@H](CCC(=O)O)C(=O)O)C(=O)O)C(=O)O)CCN(CC(=O)[O-])CC1.[Y+3] (stereo partly shown) [^89Y-5] ({DOTA}-[ξF][ξF][ξF]K(X1)-OH)	0.1
